Results taken from patent US20160324796A1, “COMPOSITIONS AND THEIR USE TO TREAT COMPLICATIONS OF ANEURYSMAL SUBARACHNOID HEMMORRHAGE” (Edge Therapeutics, Inc., priority 2007, published 2016).
Where two headings read alike, the source gives them in different places.

Key:
[1] = mongrel, dog, in vivo
Description: (§1) On days 8 and 15, the animals were anesthetized, and angiography, removal of CSF from the cistern magna and collection of plasma, were repeated. Other endpoints included daily blood pressure measurements, behavior assessment, and brain and spinal cord pathology. Animals were euthanized under anesthesia on day 28 or 49, perfused with PBS and then neutral buffered formalin, and the brains subjected to histological analysis.
The animals are grouped according to whether the animals died or were euthanized at an unscheduled time (DOS) or underwent scheduled necropsy (SNC).

[2] = Preclinical Study 2: CSF (cisterna magna) concentration of nimodipine; assay type: in vivo, mongrel dogs; conditions: oral nimodipine 0.86 mg/kg six times per day
Description: as §1
Values are means±standard error of the mean (n=8 per measurement).

[3] = cited from earlier work
[4] = Mice, Male, cited from earlier work
[5] = Plasma nimodipine after single subcutaneous injection of nimodipine PLGA microparticles; assay type: in vivo, Wistar rats; conditions: rats, up to day 15
Method: The rats were divided into separate treatment groups: one control group for treatment with a nimodipine reference solution (control group) and several test groups for treatment with exemplary nimodipine formulations (microparticle test group) according to the described invention. […] The test article was reconstituted with an injection vehicle volume of 0.15 or 0.70 ml, and the entire volume of each reconstituted vial was drawn up immediately and administered individually to each animal. Blood samples were collected from two alternating cohorts of 2 or 3 animals per cohort in the microparticle formulation-injected groups. Collection was immediately before injection and then 1, 12, and 24 hours post dose, and on days 4, 8, 11, and 15. After the last blood sample collection interval, the surviving animals were euthanized via carbon dioxide inhalation. Euthanasia was confirmed by cervical dislocation and anesthesia.

[6] = Rats, Male, cited from earlier work
[7] = cited from earlier work; remark: listed apart in the source

SMILES: COCCOC(=O)C1=C(C)NC(C)=C(C(=O)OC(C)C)C1c1cccc([N+](=O)[O-])c1 (stereo not shown) [nimodipine, Isopropyl 2-methoxyethyl 1,4-dihydro-2,6-dimethyl-4-(m-nitrophenyl)-3,5-pyridinedicarboxylate]
- Brain discoloration, red, # of animals ([1]; female, 28 d): 0
- Brain focus/foci, red, # of animals ([1]; female, 28 d): 0
- Brain nodule, # of animals ([1]; female, 28 d): 0
- Brain: chromatolysis, central, neuronal; minimal ([1]; female, 28 d): 0
- Brain: degeneration, axonal/myelin; mild ([1]; female, 28 d): 0
- Brain: degeneration, axonal/myelin; minimal ([1]; female, 28 d): 0
- Brain: degeneration; mild ([1]; female, 28 d): 0
- Brain: degeneration; minimal ([1]; female, 28 d): 0
- Brain: fibroplasia; mild ([1]; female, 28 d): 0
- Brain: fibroplasia; minimal ([1]; female, 28 d): 0
- Brain: granulation tissue; mild ([1]; female, 28 d): 0
- Brain: granulation tissue; minimal ([1]; female, 28 d): 0
- Brain: hemorrhage; minimal ([1]; female, 28 d): 0
- Brain: hemorrhage; moderate ([1]; female, 28 d): 0
- Brain: inflammation, granulomous; minimal ([1]; female, 28 d): 0
- Brain: inflammation, meningeal; minimal ([1]; female, 28 d): 0
- Brain: inflammation, subacute/chronic; mild ([1]; female, 28 d): 0
- Brain: macrophages, pigmented; mild ([1]; female, 28 d): 0
- Brain: macrophages, pigmented; minimal ([1]; female, 28 d): 0
- Brain: mineralization focal; minimal ([1]; female, 28 d): 0
- Brain: neovascularization; minimal ([1]; female, 28 d): 0
- Brain: within normal limits ([1]; female, 28 d): 0
- Spinal Cord, Cervical: degeneration, axonal/myelin; minimal ([1]; female, 28 d): 0
- Spinal Cord, Cervical: fibroplasia; minimal ([1]; female, 28 d): 0
- Spinal Cord, Cervical: fibroplasia; moderate ([1]; female, 28 d): 0
- Spinal Cord, Cervical: inflammation, granulomatous; minimal ([1]; female, 28 d): 0
- Spinal Cord, Cervical: inflammation, subacute/chronic; mild ([1]; female, 28 d): 0
- Spinal Cord, Cervical: macrophages, pigmented; minimal ([1]; female, 28 d): 0
- Spinal Cord, Cervical: within normal limits ([1]; female, 28 d): 0
- Spinal Cord, Lumbar: fibroplasia; minimal ([1]; female, 28 d): 0
- Spinal Cord, Lumbar: hemorrhage; minimal ([1]; female, 28 d): 0
- Spinal Cord, Lumbar: mineralization; minimal ([1]; female, 28 d): 0
- Spinal Cord, Lumbar: within normal limits ([1]; female, 28 d): 0
- Spinal Cord, Thoracic: fibroplasia; minimal ([1]; female, 28 d): 0
- Spinal Cord, Thoracic: hemorrhage; minimal ([1]; female, 28 d): 0
- Spinal Cord, Thoracic: inflammation, granulomatous; minimal ([1]; female, 28 d): 0
- Spinal Cord, Thoracic: inflammation, subacute/chronic; minimal ([1]; female, 28 d): 0
- Spinal Cord, Thoracic: macrophages, pigmented; minimal ([1]; female, 28 d): 0
- Spinal Cord, Thoracic: within normal limits ([1]; female, 28 d): 0
- Brain discoloration, red, # of animals ([1]; female, 49 d): 0
- Brain focus/foci, red, # of animals ([1]; female, 49 d): 0
- Brain nodule, # of animals ([1]; female, 49 d): 0
- Brain: chromatolysis, central, neuronal; minimal ([1]; female, 49 d): 0
- Brain: degeneration, axonal/myelin; mild ([1]; female, 49 d): 0
- Brain: degeneration, axonal/myelin; minimal ([1]; female, 49 d): 0
- Brain: degeneration; mild ([1]; female, 49 d): 0
- Brain: fibroplasia; mild ([1]; female, 49 d): 0
- Brain: fibroplasia; minimal ([1]; female, 49 d): 0
- Brain: granulation tissue; mild ([1]; female, 49 d): 0
- Brain: granulation tissue; minimal ([1]; female, 49 d): 0
- Brain: hemorrhage; mild ([1]; female, 49 d): 0
- Brain: hemorrhage; minimal ([1]; female, 49 d): 0
- Brain: hemorrhage; moderate ([1]; female, 49 d): 0
- Brain: infiltration, lymphoid, perivascular; minimal ([1]; female, 49 d): 0
- Brain: inflammation, granulomous; mild ([1]; female, 49 d): 0
- Brain: inflammation, granulomous; minimal ([1]; female, 49 d): 0
- Brain: inflammation, meningeal; minimal ([1]; female, 49 d): 0
- Brain: inflammation, subacute/chronic; mild ([1]; female, 49 d): 0
- Brain: macrophages, pigmented; mild ([1]; female, 49 d): 0
- Brain: macrophages, pigmented; minimal ([1]; female, 49 d): 0
- Brain: mineralization focal; minimal ([1]; female, 49 d): 0
- Brain: neovascularization; minimal ([1]; female, 49 d): 0
- Brain: within normal limits ([1]; female, 49 d): 0
- Spinal Cord, Cervical: degeneration, axonal/myelin; minimal ([1]; female, 49 d): 0
- Spinal Cord, Cervical: fibroplasia; mild ([1]; female, 49 d): 0
- Spinal Cord, Cervical: fibroplasia; minimal ([1]; female, 49 d): 0
- Spinal Cord, Cervical: fibroplasia; moderate ([1]; female, 49 d): 0
- Spinal Cord, Cervical: hemorrhage; minimal ([1]; female, 49 d): 0
- Spinal Cord, Cervical: inflammation, granulomatous; minimal ([1]; female, 49 d): 0
- Spinal Cord, Cervical: inflammation, granulomatous; moderate ([1]; female, 49 d): 0
- Spinal Cord, Cervical: inflammation, subacute/chronic; mild ([1]; female, 49 d): 0
- Spinal Cord, Cervical: macrophages, pigmented; minimal ([1]; female, 49 d): 0
- Spinal Cord, Cervical: within normal limits ([1]; female, 49 d): 0
- Spinal Cord, Lumbar: fibroplasia; minimal ([1]; female, 49 d): 0
- Spinal Cord, Lumbar: hemorrhage; minimal ([1]; female, 49 d): 0
- Spinal Cord, Lumbar: mineralization; minimal ([1]; female, 49 d): 0
- Spinal Cord, Lumbar: within normal limits ([1]; female, 49 d): 0
- Spinal Cord, Thoracic: fibroplasia; minimal ([1]; female, 49 d): 0
- Spinal Cord, Thoracic: hemorrhage; minimal ([1]; female, 49 d): 0
- Spinal Cord, Thoracic: inflammation, granulomatous; minimal ([1]; female, 49 d): 0
- Spinal Cord, Thoracic: inflammation, subacute/chronic; minimal ([1]; female, 49 d): 0
- Spinal Cord, Thoracic: macrophages, pigmented; minimal ([1]; female, 49 d): 0
- Spinal Cord, Thoracic: within normal limits ([1]; female, 49 d): 0
- Brain discoloration, red, # of animals ([1]; male, 28 d): 0
- Brain focus/foci, red, # of animals ([1]; male, 28 d): 0
- Brain nodule, # of animals ([1]; male, 28 d): 0
- Brain: chromatolysis, central, neuronal; minimal ([1]; male, 28 d): 0
- Brain: degeneration, axonal/myelin; mild ([1]; male, 28 d): 0
- Brain: degeneration, axonal/myelin; minimal ([1]; male, 28 d): 0
- Brain: degeneration; mild ([1]; male, 28 d): 0
- Brain: degeneration; minimal ([1]; male, 28 d): 0
- Brain: granulation tissue; mild ([1]; male, 28 d): 0
- Brain: granulation tissue; minimal ([1]; male, 28 d): 0
- Brain: hemorrhage; mild ([1]; male, 28 d): 0
- Brain: hemorrhage; minimal ([1]; male, 28 d): 0
- Brain: hemorrhage; moderate ([1]; male, 28 d): 0
- Brain: infiltration, lymphoid, perivascular; minimal ([1]; male, 28 d): 0
- Brain: inflammation, meningeal; minimal ([1]; male, 28 d): 0
- Brain: inflammation, subacute/chronic; mild ([1]; male, 28 d): 0
- Brain: inflammation, subacute/chronic; minimal ([1]; male, 28 d): 0
- Brain: macrophages, pigmented; minimal ([1]; male, 28 d): 0
- Brain: mineralization focal; minimal ([1]; male, 28 d): 0
- Brain: neovascularization; minimal ([1]; male, 28 d): 0
- Brain: within normal limits ([1]; male, 28 d): 0
- Spinal Cord, Cervical: degeneration, axonal/myelin; minimal ([1]; male, 28 d): 0
- Spinal Cord, Cervical: fibroplasia; minimal ([1]; male, 28 d): 0
- Spinal Cord, Cervical: inflammation, granulomatous; moderate ([1]; male, 28 d): 0
- Spinal Cord, Cervical: within normal limits ([1]; male, 28 d): 0
- Spinal Cord, Lumbar: fibroplasia; minimal ([1]; male, 28 d): 0
- Spinal Cord, Lumbar: hemorrhage; minimal ([1]; male, 28 d): 0
- Spinal Cord, Lumbar: mineralization; minimal ([1]; male, 28 d): 0
- Spinal Cord, Lumbar: within normal limits ([1]; male, 28 d): 0
- Spinal Cord, Thoracic: fibroplasia; minimal ([1]; male, 28 d): 0
- Spinal Cord, Thoracic: hemorrhage; minimal ([1]; male, 28 d): 0
- Spinal Cord, Thoracic: inflammation, granulomatous; minimal ([1]; male, 28 d): 0
- Spinal Cord, Thoracic: inflammation, subacute/chronic; minimal ([1]; male, 28 d): 0
- Spinal Cord, Thoracic: macrophages, pigmented; minimal ([1]; male, 28 d): 0
- Spinal Cord, Thoracic: within normal limits ([1]; male, 28 d): 0
- Brain discoloration, red, # of animals ([1]; male, 49 d): 0
- Brain focus/foci, red, # of animals ([1]; male, 49 d): 0
- Brain nodule, # of animals ([1]; male, 49 d): 0
- Brain: chromatolysis, central, neuronal; minimal ([1]; male, 49 d): 0
- Brain: degeneration, axonal/myelin; mild ([1]; male, 49 d): 0
- Brain: degeneration, axonal/myelin; minimal ([1]; male, 49 d): 0
- Brain: degeneration; mild ([1]; male, 49 d): 0
- Brain: degeneration; minimal ([1]; male, 49 d): 0
- Brain: fibroplasia; minimal ([1]; male, 49 d): 0
- Brain: granulation tissue; mild ([1]; male, 49 d): 0
- Brain: granulation tissue; minimal ([1]; male, 49 d): 0
- Brain: hemorrhage; mild ([1]; male, 49 d): 0
- Brain: hemorrhage; minimal ([1]; male, 49 d): 0
- Brain: hemorrhage; moderate ([1]; male, 49 d): 0
- Brain: infiltration, lymphoid, perivascular; minimal ([1]; male, 49 d): 0
- Brain: inflammation, granulomous; mild ([1]; male, 49 d): 0
- Brain: inflammation, meningeal; minimal ([1]; male, 49 d): 0
- Brain: inflammation, subacute/chronic; mild ([1]; male, 49 d): 0
- Brain: macrophages, pigmented; mild ([1]; male, 49 d): 0
- Brain: macrophages, pigmented; minimal ([1]; male, 49 d): 0
- Brain: mineralization focal; minimal ([1]; male, 49 d): 0
- Brain: neovascularization; minimal ([1]; male, 49 d): 0
- Brain: within normal limits ([1]; male, 49 d): 0
- Spinal Cord, Cervical: degeneration, axonal/myelin; minimal ([1]; male, 49 d): 0
- Spinal Cord, Cervical: fibroplasia; minimal ([1]; male, 49 d): 0
- Spinal Cord, Cervical: fibroplasia; moderate ([1]; male, 49 d): 0
- Spinal Cord, Cervical: hemorrhage; minimal ([1]; male, 49 d): 0
- Spinal Cord, Cervical: inflammation, granulomatous; minimal ([1]; male, 49 d): 0
- Spinal Cord, Cervical: inflammation, granulomatous; moderate ([1]; male, 49 d): 0
- Spinal Cord, Cervical: inflammation, subacute/chronic; mild ([1]; male, 49 d): 0
- Spinal Cord, Cervical: macrophages, pigmented; minimal ([1]; male, 49 d): 0
- Spinal Cord, Lumbar: fibroplasia; minimal ([1]; male, 49 d): 0
- Spinal Cord, Lumbar: hemorrhage; minimal ([1]; male, 49 d): 0
- Spinal Cord, Lumbar: mineralization; minimal ([1]; male, 49 d): 0
- Spinal Cord, Lumbar: within normal limits ([1]; male, 49 d): 0
- Spinal Cord, Thoracic: fibroplasia; minimal ([1]; male, 49 d): 0
- Spinal Cord, Thoracic: hemorrhage; minimal ([1]; male, 49 d): 0
- Spinal Cord, Thoracic: inflammation, granulomatous; minimal ([1]; male, 49 d): 0
- Spinal Cord, Thoracic: inflammation, subacute/chronic; minimal ([1]; male, 49 d): 0
- Spinal Cord, Thoracic: macrophages, pigmented; minimal ([1]; male, 49 d): 0
- Spinal Cord, Thoracic: within normal limits ([1]; male, 49 d): 0
- CSF nimodipine concentrations [2]: low or undetectable
- LD50 ([3]; Rabbits, Female, Intravenous): 2.5 mg/kg
- LD50 ([3]; female, rabbit, in vivo, po): 5000 mg/kg
- LD50 ([4]; Intravenous): 33 mg/kg
- LD50 ([4]; Oral): 3562 mg/kg
- plasma nimodipine concentrations over time [5]: sustained release of nimodipine over time
- LD50 ([6]; Intravenous): 16 mg/kg
- LD50 ([6]; Oral): 6599 mg/kg
- LD50 ([7]; Dogs, Male and female, Intravenous): 4 mg/kg
- LD50 ([7]; both, dog, in vivo, po): 1000 to 2000 mg/kg
